Test results reported in US20230365583A1, “FUSED TRICYCLIC PYRIMIDINE-THIENO-PYRIDINE SMALL MOLECULE INHIBITORS OF UBIQUITIN-SPECIFIC PROTEASE 28” (Dana-Farber Cancer Institute, Inc., priority 2020, published 2023).

Each molecule was assayed against T1, USP28 (Homo sapiens (Human), UniProt Q96RU2) (assay: Ubiquitin-Rhodamine110 assay). Conditions: USP28 at 1 nM; 30 minutes pre-incubation at room temperature; Ubiquitin-Rho110 substrate 125 nM.
T1 sequence (Q96RU2 whole entry): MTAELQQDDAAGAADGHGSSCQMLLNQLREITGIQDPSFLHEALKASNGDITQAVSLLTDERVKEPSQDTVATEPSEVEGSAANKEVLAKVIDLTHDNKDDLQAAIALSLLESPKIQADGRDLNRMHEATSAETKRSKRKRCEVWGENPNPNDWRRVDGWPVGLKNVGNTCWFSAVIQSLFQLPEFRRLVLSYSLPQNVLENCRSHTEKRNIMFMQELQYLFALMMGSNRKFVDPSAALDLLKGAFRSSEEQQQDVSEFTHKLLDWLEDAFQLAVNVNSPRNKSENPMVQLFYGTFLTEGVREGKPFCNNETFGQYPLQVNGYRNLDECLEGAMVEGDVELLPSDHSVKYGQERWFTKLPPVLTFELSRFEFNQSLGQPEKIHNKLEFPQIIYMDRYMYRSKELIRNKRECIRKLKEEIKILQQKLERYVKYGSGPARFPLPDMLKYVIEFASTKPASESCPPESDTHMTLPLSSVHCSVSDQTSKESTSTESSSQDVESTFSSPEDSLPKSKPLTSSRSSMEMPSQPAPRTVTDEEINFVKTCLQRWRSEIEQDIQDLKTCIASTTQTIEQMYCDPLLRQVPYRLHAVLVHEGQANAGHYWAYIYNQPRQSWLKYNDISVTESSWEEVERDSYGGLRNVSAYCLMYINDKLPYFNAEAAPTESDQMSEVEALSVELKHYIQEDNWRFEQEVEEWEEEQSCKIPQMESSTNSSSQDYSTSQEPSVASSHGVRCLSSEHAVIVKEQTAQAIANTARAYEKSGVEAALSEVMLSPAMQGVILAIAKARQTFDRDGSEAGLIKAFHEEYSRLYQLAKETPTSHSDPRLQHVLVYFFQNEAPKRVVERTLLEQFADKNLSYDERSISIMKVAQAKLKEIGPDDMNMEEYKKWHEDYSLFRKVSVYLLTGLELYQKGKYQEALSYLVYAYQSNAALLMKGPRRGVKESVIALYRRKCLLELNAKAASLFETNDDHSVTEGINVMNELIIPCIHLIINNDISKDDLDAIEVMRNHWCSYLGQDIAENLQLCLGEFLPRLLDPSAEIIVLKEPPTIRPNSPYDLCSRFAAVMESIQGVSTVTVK
Type: biochemical
Description: USP28 (at 1 nM) was pre-incubated with different concentrations of inhibitors or DMSO as a control in 50 mM Tris pH 8, 50 mM NaCl, 0.002% Tween-20, 5 mM DTT. Compounds and protein were incubated for 30 minutes at room temperature prior to the addition of Ubiquitin-Rho110 (Boston Biochem) substrate for a final concentration of 125 nM. The initial rate of the reaction was measured by collecting fluorescence data at one-minute interval over 30-minute period using a Clariostar® fluorescence plate reader at excitation and emission wavelength of 485 nm and 535 nm, respectively. The calculated initial rate values were plotted against inhibitor concentrations to determine IC50s. All the experimental data were plotted using GraphPad Prism®.
In the case of Cc1ccc2c(N)c(C(=O)NCCc3ccc(C4CC5CCC(C4)N5C(=O)OC(C)(C)C)cc3)sc2n1 (centres unmarked) [Compound 24], the IC50 is reported as < 1000 nM. CCCc1nc2sc3c(NCCc4ccc(N(C)C)cc4)ncnc3c2c2c1CCC2 [Compound 12] was tested, and the IC50 was < 1000 nM. For COc1ccc(CCNC(=O)c2sc3nc(C)ccc3c2N)cc1OC [Compound 20], the IC50 was < 1000 nM. Work on COc1ccc(CCNc2ncnc3c2sc2ncc4c(c23)CCC4)cc1OC [Compound 8] yielded an IC50 of 1000 to 10000 nM. With CCCc1ccc2c(n1)sc1c(NCCc3ccc4c(c3)OCCO4)ncnc12 [Compound 39] the IC50 was < 1000 nM. Molecule CCCc1nc2sc3c(N(C)CCc4ccc(OC)c(OC)c4)ncnc3c2c2c1CCC2 [Compound 7] has an IC50 of 10000 to 100000 nM. With CCCc1nc2sc3c(NCCc4ccc(OC)c(OC)c4)ncnc3c2c2c1CCC2 [Compound 1] the IC50 was < 1000 nM. In the case of CCCc1nc2sc3c(NCc4ccco4)ncnc3c2c2c1CCC2 [Compound 2], the IC50 is reported as < 1000 nM. With Cc1ccc2c(N)c(C(=O)NCCc3ccc(C4CC5CCC(C4)N5)cc3)sc2n1 (centres unmarked) [Compound 23] the IC50 was < 1000 nM. With CCCc1nc2sc(C(=O)NC[C@H](C)c3ccccc3)c(N)c2c2c1CCC2 [Compound 40] the IC50 was < 1000 nM. For CCCc1ccc2c(n1)sc1c(NCC(C)c3ccc(OC)c(OC)c3)ncnc12 (centres unmarked) [Compound 43], the IC50 was < 1000 nM. CCCc1nc2sc3c(NCc4ccc(Cl)c(Cl)c4)ncnc3c2c2c1CCC2 [Compound 5] was tested, and the IC50 was > 100000 nM. For CCCc1nc2sc3c(NCCCc4ccc(OC)c(OC)c4)ncnc3c2c2c1CCC2 [Compound 14], the IC50 was 10000 to 100000 nM. In the case of CCCc1nc2sc3c(NCCc4ccc(OC)cc4)ncnc3c2c2c1CCC2 [Compound 10], the IC50 is reported as < 1000 nM. With CCCCCc1nc2sc3c(NCCc4ccc(OC)c(OC)c4)ncnc3c2c2c1CCC2 [Compound 48] the IC50 was < 1000 nM. For CCCc1nc2sc3c(NCc4ccc(OC)c(OC)c4)ncnc3c2c2c1CCC2 [Compound 9], the IC50 was < 1000 nM. With COc1ccc(CCNc2ncnc3c2sc2ncccc23)cc1OC [Compound 6] the IC50 was 1000 to 10000 nM. For Cc1ccc2c(N)c(C(=O)NCCc3ccc(C4CCNCC4)cc3)sc2n1 [Compound 22], the IC50 was < 1000 nM. CCCc1nc2sc3c(OCCc4ccc(OC)c(OC)c4)ncnc3c2c2c1CCC2 [Compound 44] showed an IC50 of 1000 to 10000 nM. In the case of CCCc1nc2sc(C(=O)NCC(C)c3ccc(OC)c(OC)c3)c(N)c2c2c1CCC2 (centres unmarked) [Compound 36], the IC50 is reported as < 1000 nM. Cc1ccc2c(N)c(C(=O)NCCc3ccc(N4CCN(C(=O)OC(C)(C)C)CC4)cc3)sc2n1 [Compound 31] was tested, and the IC50 was < 1000 nM. In the case of CCCc1nc2sc(C(=O)NCCc3ccc(N4CCNCC4)cc3)c(N)c2c2c1CCC2 [Compound 21], the IC50 is reported as < 1000 nM. In the case of CCCc1nc2sc(C(=O)NCCc3ccc(OC)c(OC)c3)c(NC(C)=O)c2c2c1CCC2 [Compound 29], the IC50 is reported as < 1000 nM. For CCCc1ccc2c(n1)sc1c(NCCc3ccc(N(C)C)cc3)ncnc12 [Compound 42], the IC50 was < 1000 nM. COc1ccc(CCNC(=O)c2sc3nc(C)c4c(c3c2N)CCC4)cc1OC [Compound 25] was tested, and the IC50 was < 1000 nM. CCCc1nc2sc(C(=O)N[C@@H](C)Cc3ccc(OC)cc3)c(N)c2c2c1CCC2 [Compound 47] was tested, and the IC50 was < 1000 nM. CCCc1nc2sc3c(NCCc4ccc(N5CCNCC5)cc4)ncnc3c2c2c1CCC2 [Compound 19] was tested, and the IC50 was < 1000 nM. For CCCc1nc2sc(C(=O)NC[C@@H](C)c3ccccc3)c(N)c2c2c1CCC2 [Compound 41], the IC50 was < 1000 nM. CCCc1nc2sc(C(=O)NCCc3ccc(OC)c(OC)c3)c(N)c2c2c1CCCC2 [Compound 46] was tested, and the IC50 was < 1000 nM. CCCc1nc2sc(C(=O)N[C@H](C)Cc3ccc(OC)cc3)c(N)c2c2c1CCC2 [Compound 50] was tested, and the IC50 was < 1000 nM. CCCc1nc2sc3c(NCCc4cccs4)ncnc3c2c2c1CCC2 [Compound 17] was tested, and the IC50 was < 1000 nM. Molecule CCCc1nc2sc3c(NCCc4c[nH]c5ccccc45)ncnc3c2c2c1CCC2 [Compound 15] has an IC50 of 1000 to 10000 nM. With COc1ccc(CCNC(=O)c2sc3nc4c(c(C)c3c2N)CCC4)cc1OC [Compound 26] the IC50 was < 1000 nM. CCCc1ccc2c(n1)sc1c(NCCc3ccc(OC)c(OC)c3)ncnc12 [Compound 38] was tested, and the IC50 was < 1000 nM. CCCc1ccc2c(N)c(C(=O)NCCc3ccc(OC)c(OC)c3)sc2n1 [Compound 28] was tested, and the IC50 was < 1000 nM. With CCCc1nc2sc3c(NCCc4ccc(OC)c(OC)c4)ncnc3c2c2c1CCCC2 [Compound 45] the IC50 was < 1000 nM. CCCc1nc2sc3c(NCCc4ccc(Cl)c(Cl)c4)ncnc3c2c2c1CCC2 [Compound 4] gave an IC50 of 10000 to 100000 nM. CCCc1nc2sc(C(=O)NCCc3ccc(OC)c(OC)c3)c(N)c2cc1C(=O)N(C)C [Compound 35] was tested, and the IC50 was < 1000 nM. In the case of CCCc1nc2sc3c(NCCc4cc(OC)c(OC)c(OC)c4)ncnc3c2c2c1CCC2 [Compound 16], the IC50 is reported as 1000 to 10000 nM. Cc1ccc2c(N)c(C(=O)NCCc3ccc(N4CCNCC4)cc3)sc2n1 [Compound 30] was tested, and the IC50 was < 1000 nM. CCCc1nc2sc3c(NCCc4ccc5c(c4)OCCO5)ncnc3c2c2c1CCC2 [Compound 13] gave an IC50 of 1000 to 10000 nM. For CCCc1nc2sc(C(=O)NCCc3ccc(OC)c(OC)c3)c(NCc3ccccc3)c2c2c1CCC2 [Compound 33], the IC50 was < 1000 nM. In the case of CCCc1nc2sc(C(=O)NCCc3ccc(O)c(O)c3)c(N)c2c2c1CCC2 [Compound 32], the IC50 is reported as < 1000 nM. With CCCCCc1nc2sc(C(=O)NCCc3ccc(OC)c(OC)c3)c(N)c2c2c1CCC2 [Compound 49] the IC50 was < 1000 nM. Molecule CCCc1nc2sc3c(NCCc4cccc(OC)c4)ncnc3c2c2c1CCC2 [Compound 11] has an IC50 of 10000 to 100000 nM. For CCCc1nc2sc3c(NC4CCCCC4)ncnc3c2c2c1CCC2 [Compound 3], the IC50 was 10000 to 100000 nM. For CCCc1nc2sc(C(=O)NC(C)Cc3ccc(OC)c(OC)c3)c(N)c2c2c1CCC2 (centres unmarked) [Compound 37], the IC50 was < 1000 nM. For CCCc1nc2sc(C(=O)NCCc3ccc(OC)c(OC)c3)c(N)c2c2c1CCC2 [Compound 18], the IC50 was < 1000 nM. In the case of CCCc1nc2oc(C(=O)NCCc3ccc(OC)c(OC)c3)c(N)c2c2c1CCC2 [Compound 27], the IC50 is reported as < 1000 nM.

What follows are molecules tested against T1, USP28 (assay: Competitive activity-based protein profiling (Ub-VME labeling, Western blot) in K562 cell lysate). Conditions: K562 cells lysed, treated with compound for 1 h followed by incubation with Ub-VME; Western blot (FIG. 2).
Type: binding
Description: K562 cells were lysed and treated with indicated concentrations of compound 1 for 1 h followed by incubation with Ub-VME. Ub-VME covalently modifies USP28, resulting in higher MW band observed by Western blot.
Cells were pelleted, washed with PBS buffer, lysed on ice (20 mM Tris pH 8, 150 mM NaCl, 1% NP-40, 10% glycerol, 1 mM TCEP, phosphatase inhibitor cocktails (Sigma P5726 and Calbiochem 524624), and protease inhibitors (pepstatin, leupeptin, PMSF, and aprotinin), and clarified by centrifugation. Protein content was quantified by BCA and diluted to 2 mg/mL in lysis buffer. Compounds were added at desired concentrations and incubated at room temperature for 30 minutes. Samples were then supplemented with 2 uM HA-Ub-VS and incubated at room temperature with shaking for 15 minutes. Reactions were quenched with 4×LDS sample buffer (Thermo Fisher B0007) supplemented with 10% BME, vortexed vigorously, and heated to 95° C. for 5 minutes. Samples were resolved by SDS-PAGE and analyzed by Western blot with the indicated antibodies.
With CCCc1nc2sc3c(NCCc4ccc(OC)c(OC)c4)ncnc3c2c2c1CCC2 [Compound 1] the “Target engagement: labeling of USP28 by covalent Ub-VME probe” value was “prevents labeling of USP28 by the covalent Ub-VME probe”.
